Test results taken from US20160066550A1, “Animal Model Expressing Luciferase under Control of the Myelin Basic Protein Promoter (MBP-luci) and Use of the Model for Bioluminescence In Vivo Imaging” (SANOFI, priority 2009, published 2016).
Where two headings read alike, the source gives them in different places.

Assays:
[1] = tested on: MBP-luc line 171 heterozygous B6C3H mice; assay: MBP-luci bioimaging, cuprizone model, demyelination phase, line 171 heterozygous; format: in vivo, mouse
Experimental: (§1) Mice were imaged at week 0 (baseline), week 3 and week 4 data normalized to the week 0 baseline.
As described above, mice were injected with 250 mg/kg D-luciferin through SC, IP or IV. After 5 (intravenous) or 8 (intraperitoneal or SC) minutes, mice were imaged using the IVIS 100 (Xenogen) for 16 minutes (60 seconds imaging and 60 seconds interval for 8 pictures at bin size 8). To quantify bioluminescence, identical circular regions of interest were positioned to encircle each mouse head region, and the imaging signal was quantitated as average radiance (photons/s/cm2/steridian) using […] software (version 2.5, Xenogen). The head region of interest was kept constant in area and positioning within all experiments. Data were normalized to bioluminescence at the initiation of treatment for each animal.
as §1

MBP-luci mice = format: in vivo, mouse; conditions: 0.2% cuprizone diet; for imaging signal drop: MBP 5k-luci line 171 (B6C3)
Experimental: To quantify bioluminescence, identical circular regions of interest were positioned to encircle each mouse head region, and the imaging signal was quantitated as average radiance (photons/s/cm2/steridian) using […] software (version 2.5, Xenogen).
As further proof, a MBP 5k-luci line 171 (B6C3 strain) was tested. […] There was significant imaging signal drop with cuprizone treatment (demyelination). For example, there is 43% signal drop from wk 0 to wk 4 and 74% signal drop from wk 0 to wk 6.
Three different MBP-luci lines (line 171 B6C3H het strain, line 121 C57BL/6 heterozygous strain and line 171 B6C3H homozygous strain) were compared by bioimaging and Luxol Fast Blue (LFB; myelin stain) histology. Mice were placed on a diet containing 0.2% cuprizone for 4 or 5 weeks. Imaging data were normalized to week 0 baseline measurements. At the end of each study, mouse brains were harvested and serial paraffin sections were stained for myelin with LFB. Average qualitative LFB score (0 to 5) was shown in the chart of FIG. 21. […] Line 171 B6C3H homozygous mice had the largest bioimaging signal reduction during cuprizone food feeding in the reference to their base line imaging before cuprizone food feeding. For example, after three weeks on the cuprizone diet, 171 B6C3H homozygous mice had 72% signal reduction (week 3 reference to week 0, p<0.05), while line 171 B6C3H heterozygous mice had 45% bioimaging signal reduction (reference to week 0, p<0.05). Line 121 C57 BL/6 heterozygous mice had the smallest reduction in luciferase signal (33% reduction at week 3 over week 0, p<0.05).

| Structure (SMILES) | imaging signal vs vehicle control ([1]; 10 mg/kg oral, week 3 and week 4 on cuprizone diet, first study (FIG. 17)) | cuprizone-induced bioimaging signal reduction ([1]; 10 mg/kg, week 3, second study (FIG. 18), vehicle 47% reduction, p=0.028) | bioimaging signal increase ([1]; 10 mg/kg, week 4, second study (FIG. 18), vehicle 25% reduction) | transgene activity compared to the vehicle control group ([1]; 10 mg/kg, weeks 3 and 4, second study (FIG. 18)) | imaging signal drop (MBP-luci mice; wk 0 to wk 4) | imaging signal drop (MBP-luci mice; wk 0 to wk 6) | reduction in luciferase signal (MBP-luci mice; week 3 over week 0, line 121 C57 BL/6 heterozygous, p<0.05) | bioimaging signal reduction (MBP-luci mice; week 3 vs week 0, line 171 B6C3H heterozygous, p<0.05) | bioimaging signal reduction (MBP-luci mice; week 3 vs week 0, line 171 B6C3H homozygous, p<0.05) |
| --- | --- | --- | --- | --- | --- | --- | --- | --- | --- |
| OCCOCCN1CCN(C2=Nc3ccccc3Sc3ccccc32)CC1 [QTP, Quetiapine] | significant increases | 25% | 6% | significantly greater transgene activity |  |  |  |  |  |
| O=C(NN=C1CCCCC1)C(=O)NN=C1CCCCC1 [cuprizone, bis-cyclohexanone oxaidihydrazone] |  |  |  |  | 43% | 74% | 33% | 45% | 72% |
